The source of these data is US9408856B2, “Topical steroidal formulations” (Temple University—Of The Commonwealth System of Higher …, priority 2008, dated 2016).

In data set [1] the test system is TPA-stimulated epidermal hyperplasia in mouse skin. Kind of data set: TPA-stimulated epidermal hyperplasia in mouse skin, subcutaneous fluasterone. It is filed as in vivo, mice. Particulars: subcutaneous injection. The method, then:
In dose-response experiments the anti-hyperplastic efficacy of fluasterone in TPA-treated mouse epidermis to determine bioavailability following different routes of administration was measured. Mice were treated with a single dose of fluasterone (either orally, subcutaneously, or transdermally) followed by a single application of TPA to the shaved back one hour latter. In case of transdermal administration, fluasterone is applied in a topical formulation to the shaved abdomen to allow for systemic absorption to the back of the animal. Twenty hours after TPA application, the mice are injected with 60 μCi of [3H] thymidine, sacrificed 20 minutes later, and a 2×2 cm2 of skin from the shaved back is excised and processed for the determination of the amount of [3H] thymidine incorporated per unit of epidermal DNA. (Hennings et. al., Cancer Res. 28:543-552, 1968).

A short description of data set [2]: Solubility of fluasterone in solvents and mixed solvents. The format is physicochemical. As to conditions: thermodynamic from solid. The method, then: Fluasterone: The solubility of fluasterone in various solvents was determined by adding a specific volume of solvent to a weighed amount of fluasterone in a screw-capped glass vial and shaking vigorously for several minutes. Incremental volumes of solvent were added, followed by vigorous shaking, until the fluasterone completely dissolved.
Alternatively solubility was determined by adding a specific volume of solvent to a weighed amount of fluasterone in a screw-capped glass vial and warming the vial on a hot plate with vigorous shaking until the fluasterone dissolved. Fluasterone was considered soluble if it remained in solution after at least a month at room temperature. Although the above procedures may not give precise solubilities, they should give a close approximation of maximum fluasterone solubility.
In these experiments fluasterone solubility was determined by adding fluasterone to a measured volume of solvent in a screw-capped glass vial. The vial was warned on a hot plate with vigorous shaking until the fluasterone dissolved. Fluasterone was considered soluble if it remained in solution after at least a month at room temperature.

A short description of data set [3]: PK study in human volunteers (phase I). It is filed as in vivo. Particulars: 12 human volunteers; calculated for 1200 mg oral dose from AUC0-24/mg at 800 mg or 1600 mg daily. The method, then: An oral single dose PK experiment in mice following administration of 200 mg/kg fluasterone was performed. The calculated AUC0-24 was 2,242 (ngXh/mL). A PK study was also performed in 12 human volunteers as part of a phase I fluasterone study. The volunteers received either 800 mg or 1600 mg fluasterone orally as a daily dose. The AUC0-24/mg dose was calculated.

In data set [4] the test system is TPA-promoted skin tumor promotion. Particulars: Schwartz et al. Carcinogenesis 10:1809-1813, 1989; cited from earlier work.

Values after ≈ are worked out from the molar mass of the structure shown.

Consider `C[C@]12CCCCC1=CC[C@@H]1[C@@H]2CC[C@]2(C)C(=O)[C@H](F)C[C@@H]12` [Fluasterone, 16α-fluoro-5-androsten-17-one], for which the “lowest effective dose which abolishes TPA-stimulated epidermal hyperplasia” value in data set [1] lay in the range of 2.5 to 5 mg/kg. In addition, the solubility in data set [2] (10% Tween 80-90% ethanol (v/v), organic solvent or mixture, room temperature) is < 10000 µg/mL; in data set [2] (15% Tween 80-85% ethanol (v/v), organic solvent or mixture, room temperature), < 10000 µg/mL; in data set [2] (20% Tween 80-80% ethanol (v/v), organic solvent or mixture, room temperature), > 10000 µg/mL; in data set [2] (50% Tween 80-50% ethanol (v/v), organic solvent or mixture, room temperature), > 14000 µg/mL; in data set [2] (cetyl alcohol:ethanol (10%:90%, w/w), organic solvent or mixture, cetyl alcohol:ethanol (10%:90%, w/w), room temperature), < 10000 µg/mL; in data set [2] (cetyl alcohol:ethanol (20%:80%, w/w), organic solvent or mixture, cetyl alcohol:ethanol (20%:80%, w/w), room temperature), < 12000 µg/mL. The solubility was > 10000 µg/mL in data set [2] (cetyl alcohol:ethanol mixtures (20-22% cetyl alcohol), organic solvent or mixture, cetyl alcohol:ethanol mixtures (20-22% cetyl alcohol), summary, room temperature); 3600 µg/mL (≈ 12.4 mM) in data set [2] (dimethyl sulfoxide (DMSO), organic solvent or mixture); 6600 µg/mL (≈ 22.7 mM) in data set [2] (ethanol, organic solvent or mixture); 16000 µg/mL (≈ 55.1 mM) in data set [2] (isopropyl myristate, oil or lipid); 22600 µg/mL (≈ 77.8 mM) in data set [2] (limonene, organic solvent or mixture); 1100 µg/mL (≈ 3.79 mM) in data set [2] (polyethylene glycol 400 (PEG-400), organic solvent or mixture). Further, the solubility in data set [2] (propylene glycol, organic solvent or mixture) was > 500 µg/mL. For the same compound, the AUC0-24 in data set [3] is given as 2,316 ngXh/mL. Moreover, the “lowest reported oral dose which inhibits TPA-promoted skin tumor promotion” value in data set [4] is given as 200 mg/kg.
